Test results: patent US11976280B2, “SMAC/Diablo inhibitors useful for treating cancer” (THE NATIONAL INSTITUTE FOR BIOTECHNOLOGY IN THE NEGEV LTD., priority 2017, dated 2024)
d = 2'-deoxy (DNA); r = 2'-OH (RNA)

Tested on: A549 cells-derived tumors
Assay: Next-generation sequencing (NGS) of si-NT- and si-hSMAC-A-treated tumors
Assay type: in vivo, human
Procedure: Libraries were prepared by the INCPM-RNA-seq unit (Weizmann Institute, Israel). Briefly, polyA fraction (mRNA) was purified from 500 ng of total RNA, isolated as above, followed by fragmentation and generation of double stranded cDNA. End repair, a base addition, adapter ligation and PCR amplification steps were performed according to established methods. Libraries were evaluated by Qubit and TapeStation. Sequencing libraries were constructed with barcodes to allow multiplexing of 20 samples in one lane. Between 22 and 26 million reads single-end 60-bp reads were sequenced per sample on Illumina HiSeq 2500 V4 instrument.
Bioinformatics analyses were carried out at the Bioinformatics Core Facility at the National Institute for Biotechnology in the Negev, Ben-Gurion University. Raw sequence reads were assessed for quality using FASTQC and further trimmed for removal of remaining adaptors and low quality bases using Trimmomatic. The trimmed reads from each sample were separately aligned to the human and mouse genomes (GRCh38 and GRCm38.75, respectively) using STAR v2.3.0 with default settings. An average of 23.7±0.8 million reads per sample was obtained. Of these, an average of 13, 2.6, 7.8 and 0.3 million reads were mapped to human only, mouse only, both human and mouse, and none of them, respectively. After rejection of multi-mapped reads, a total of 11.5±2.5 human-specific, uniquely mapped reads, and 2.3±1.7 mouse-specific, uniquely mapped reads were subjected for further analysis. The number of aligned reads per gene per sample were counted using HTSeq count with “intersection-nonempty” (to handle reads that overlap with more than one gene) and “no stranded” as parameters. The other parameters were set to their default. Normalization and statistical analysis for differential expression were carried out using DESeq2 v1.6.3. Fold change values were converted to linear scale, with a minus sign indicating down-regulation.
Differentially expressed genes were defined as those having a p-value<0.05, and linear fold change>1.5 and <−1.5. Functional analysis was performed using the Gene Ontology system, DAVID and Expander software tools.
NGS was used to investigate changes in patterns of gene expression in si-NT-TTs and si-hSMAC-A-TTs (FIG. 10, and Tables 3-5). […] As si-hSMAC is human-specific, any effect on mouse gene expression must be mediated by the human tumor cells.
The major functional groups were changes were seen are presented below.

[1] = vs si-NT-TTs, EXTRACELLULAR MATRIX
[2] = vs si-NT-TTs, EXTRACELLULAR SPACE
[3] = vs si-NT-TTs, METABOLISM RELATED ENZYMES
[4] = vs si-NT-TTs, METABOLISM RELATED ENZYMES, listed as si-SMAC
[5] = vs si-NT-TTs, REDOX STATE REGULATION

For “si-hSMAC-A: siRNA to human SMAC/Diablo; sense 5′AAGCGGUGUUUCUCAGAAUUGtt3′ (SEQ ID NO:20), antisense 5′AACAAUUCUGAGAAACCCGCtt3′ (SEQ ID NO:21) (sense AAGCGGUGUUUCUCAGAAUUGTT; antisense AACAAUUCUGAGAAACCCGCTT; sense: sugars from the 5' end r21 d2, backbone not given here; antisense: sugars from the 5' end r20 d2, backbone not given here)”, the “Fold change FBN1” value [1] was −1.7 fold, the “Fold change GPC6” value [1] was −1.8 fold and the “Fold change MMP2” value [1] was −2.9 fold. For the same substance, the “Fold change NLGN2” value [1] was −1.8 fold, the “Fold change SMOC1” value [1] was −1.6 fold and the “Fold change TGFBI” value [1] was −1.9 fold. For the same substance, the “Fold change VCAN” value [1] was −1.5 fold, the “Fold change VTN” value [1] was −1.6 fold and the “Fold change CCL24” value [2] was 1.9 fold. For the same substance, the “Fold change CCL28” value [2] was 1.9 fold, the “Fold change CPM” value [2] was −1.7 fold and the “Fold change CX3CL1” value [2] was 1.6 fold. The “Fold change IGFBP1” value [2] was −1.6 fold, the “Fold change IGFBP3” value [2] was −1.8 fold and the “Fold change LGALS3” value [2] was 1.6 fold. For the same substance, the “Fold change MST1” value [2] was −1.6 fold, the “Fold change PROC” value [2] was 1.8 fold and the “Fold change SPINK1” value [2] was 1.9 fold. For the same substance, the “Fold change SPINT1” value [2] was 1.7 fold, the “Fold change WISP2” value [2] was −1.7 fold and the “Fold change ACSLA (acyl-CoA synthetase long-chain family member 4)” value [3] was −1.6 fold. For the same substance, the “Fold change ADARB1” value [3] was −2.1 fold, the “Fold change ADH4” value [3] was −2.6 fold and the “Fold change ADI1” value [3] was 1.8 fold. The “Fold change AGPAT2” value [3] was 1.6 fold, the “Fold change B3GNT6” value [3] was 2.1 fold and the “Fold change BLVRA” value [3] was 1.7 fold. The “Fold change CAD” value [3] was −1.6 fold, the “Fold change CDA” value [3] was 2.0 fold and the “Fold change CMAS” value [3] was 1.5 fold. The “Fold change DGAT2” value [3] was 4.9 fold, the “Fold change DGKD” value [3] was −1.5 fold and the “Fold change DHRS9” value [3] was 2.8 fold. The “Fold change ELOVL3” value [3] was 7.4 fold, the “Fold change ELOVL4” value [3] was 145.2 fold and the “Fold change ENTPD8” value [3] was 2.7 fold. For the same substance, the “Fold change FAR2” value [3] was 4.1 fold, the “Fold change FASN” value [3] was −1.5 fold and the “Fold change FAXDC2” value [3] was 2.1 fold. For the same substance, the “Fold change FUT3” value [3] was 2.7 fold, the “Fold change FUT6” value [3] was 1.8 fold and the “Fold change GALNT5” value [3] was 1.6 fold. For the same substance, the “Fold change GALNT6” value [3] was 1.9 fold, the “Fold change GALNT12” value [3] was 1.6 fold and the “Fold change GCNT3” value [3] was 1.7 fold. For the same substance, the “Fold change GPT2” value [3] was 1.5 fold, the “Fold change LIPH” value [3] was 1.9 fold and the “Fold change MGAT4B” value [3] was 1.5 fold. The “Fold change ORMDL2” value [3] was 1.5 fold, the “Fold change PADI1” value [3] was 3.8 fold and the “Fold change PCK1” value [3] was −6.9 fold. The “Fold change PLCB4” value [3] was 1.7 fold, the “Fold change SDR16C5” value [3] was 3.0 fold and the “Fold change ST3GAL4” value [3] was 1.5 fold. The “Fold change ST6GALNAC1” value [3] was 1.6 fold, the “Fold change STARD10” value [3] was 3.7 fold and the “Fold change ELOVL3” value [4] was 7 fold. For the same substance, the “Fold change ELOVL4” value [4] was 145 fold, the “Fold change ANXA10” value (vs si-NT-TTs, Mitochondria) was −1.7 fold and the “Fold change BIK” value (vs si-NT-TTs, Mitochondria) was 2.1 fold. The “Fold change C10orf2 (TWINK)” value (vs si-NT-TTs, Mitochondria) was −1.9 fold, the “Fold change CHCHD7” value (vs si-NT-TTs, Mitochondria) was 1.6 fold and the “Fold change CPS1” value (vs si-NT-TTs, Mitochondria) was −4.8 fold. For the same substance, the “Fold change CYP24A1” value (vs si-NT-TTs, Mitochondria) was −1.9 fold, the “Fold change ENDOG” value (vs si-NT-TTs, Mitochondria) was 1.8 fold and the “Fold change MT-ND4L” value (vs si-NT-TTs, Mitochondria) was −1.9 fold. The “Fold change MT-ND5” value (vs si-NT-TTs, Mitochondria) was −1.6 fold, the “Fold change MYO19” value (vs si-NT-TTs, Mitochondria) was −1.6 fold and the “Fold change STARD13” value (vs si-NT-TTs, Mitochondria) was −2.2 fold. The “Fold change GSTP1” value [5] was −1.6 fold, the “Fold change NOS1” value [5] was −5.9 fold and the “Fold change PXDN” value [5] was 3.3 fold. The “Fold change SOD2” value [5] was −1.9 fold, the “Fold change TXN” value [5] was 2.1 fold and the “Fold change ANO1” value (vs si-NT-TTs, TRANSPORTERS) was 3.4 fold. The “Fold change ATP10B” value (vs si-NT-TTs, TRANSPORTERS) was 25.5 fold, the “Fold change CRACR2A” value (vs si-NT-TTs, TRANSPORTERS) was 3.2 fold and the “Fold change GLTP” value (vs si-NT-TTs, TRANSPORTERS) was 1.8 fold. The “Fold change KCNK1” value (vs si-NT-TTs, TRANSPORTERS) was 1.7 fold, the “Fold change KCNN4” value (vs si-NT-TTs, TRANSPORTERS) was 1.8 fold and the “Fold change SCNN1A” value (vs si-NT-TTs, TRANSPORTERS) was 1.9 fold. For the same substance, the “Fold change SLC4A4” value (vs si-NT-TTs, TRANSPORTERS) was −3.3 fold, the “Fold change SLC6A9” value (vs si-NT-TTs, TRANSPORTERS) was −1.7 fold and the “Fold change SLC24A1” value (vs si-NT-TTs, TRANSPORTERS) was −1.6 fold. The “Fold change SLC25A37” value (vs si-NT-TTs, TRANSPORTERS) was −1.5 fold, the “Fold change SLC44A4” value (vs si-NT-TTs, TRANSPORTERS) was 2.2 fold and the “Fold change SLC45A3” value (vs si-NT-TTs, TRANSPORTERS) was 1.8 fold. The “Fold change SLCO2B1” value (vs si-NT-TTs, TRANSPORTERS) was −2.8 fold, the “Fold change TMC4” value (vs si-NT-TTs, TRANSPORTERS) was 6.3 fold and the “Fold change TMC8” value (vs si-NT-TTs, TRANSPORTERS) was 2.4 fold. For the same substance, the “Fold change ATP10B” value (vs si-NT-TTs, TRANSPORTERS, listed as si-SMAC) was 25 fold and the “number of genes with significant changes” value (≥1.5-fold change, adjusted P value<0.05, human and murine) was 848.
